# Test results from patent US10457709B2, “Antimicrobial peptides, their variants and uses” (priority 2015, dated 2019).
# Like-named read-outs stand apart in the source and are kept apart here. Square brackets hold non-standard residues; d marks the D form. Peptide text beside a SMILES is read from it.
# Columns and labels:
# [1] = test system: C. glabrata clinical strains; test: MIC, clinical yeast strains; type: cell-based, Candida glabrata; parameters: unit: µg/ml
# In short: (§1)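 Antifungal testing uses potato dextrose broth; antibacterial testing uses Mueller Hinton broth. Cell density is set to 5.0×10^5 cfu/ml and incubation runs 20–24 h at 37° C. MIC is the lowest concentration, within 0.125–128 μg/ml, at which no growth is visible.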
# [2] = test system: C. quillermondiae clinical strains; test: MIC, clinical yeast strains; type: cell-based, Candida quillermondiae; parameters: unit: μg/ml; conditions: C. quillermondiae clinical yeast strain 1
# In short: as §1
# [3] = test system: Candida albicans clinical strains; test: MIC, clinical yeast strains; type: cell-based; parameters: unit: μg/ml
# In short: as §1
# [4] = test system: Enterobacter cloacae clinical strains; type: cell-based; parameters: Minimum inhibitory concentration: unit: μg/ml; conditions: microdilution, Muller Hinton broth-cation adjusted, 0.02% BSA, 0.2% acetic acid
# In short: as §1
# [5] = test system: Acinetobacter baumannii clinical strains; type: cell-based; parameters: Minimum inhibitory concentration: unit: μg/ml; conditions: microdilution, Muller Hinton broth-cation adjusted, 0.02% BSA, 0.2% acetic acid
# In short: as §1
# [6] = test system: Proteus mirabilis clinical strains; type: cell-based; parameters: Minimum inhibitory concentration: unit: μg/ml; conditions: microdilution, Muller Hinton broth-cation adjusted, 0.02% BSA, 0.2% acetic acid
# In short: as §1
# [7] = test system: Serratia marcescens clinical strains; type: cell-based; parameters: Minimum inhibitory concentration: unit: μg/ml; conditions: microdilution, Muller Hinton broth-cation adjusted, 0.02% BSA, 0.2% acetic acid
# In short: as §1
# [8] = test system: Staphylococcus aureus clinical strains; type: cell-based; parameters: Minimum inhibitory concentration: unit: μg/ml; conditions: microdilution, Muller Hinton broth-cation adjusted, 0.02% BSA, 0.2% acetic acid
# In short: as §1
# [9] = test system: Streptococcus pneumoniae clinical strains; type: cell-based; parameters: Minimum inhibitory concentration: unit: μg/ml; conditions: microdilution, Muller Hinton broth-cation adjusted, 0.02% BSA, 0.2% acetic acid
# In short: as §1
# [10] = test system: Acinetobacter johnsonii clinical strains; type: cell-based; conditions: Acinetobacter johnsonii clinical strain 1; microdilution, Muller Hinton broth-cation adjusted, 0.02% BSA, 0.2% acetic acid
# In short: as §1
# [11] = test system: Pseudomonas aeruginosa clinical strains; type: cell-based; conditions: microdilution, Muller Hinton broth-cation adjusted, 0.02% BSA, 0.2% acetic acid
# In short: as §1
# [12] = test system: all the bacteria and yeasts tested; type: cell-based
# In short: as §1
# [13] = test system: Klebsiella pneumoniae clinical strains; type: cell-based; conditions: microdilution, Muller Hinton broth-cation adjusted, 0.02% BSA, 0.2% acetic acid
# In short: as §1
# [14] = test system: Escherichia coli clinical strains; type: cell-based; conditions: for Minimum inhibitory concentration: microdilution, Muller Hinton broth-cation adjusted, 0.02% BSA, 0.2% acetic acid
# In short: as §1
# [15] = test system: C. parapsilosis clinical strains; test: MIC, clinical yeast strains; type: cell-based, Candida parapsilosis; parameters: unit: µg/ml
# In short: as §1
structure (smiles),measurement,setting,value
CC(C)C[C@@H](NC(=O)[C@H](N)CCCNC(=N)N)C(=O)N[C@H](CCCCN)C(=O)N[C@H](CCCNC(=N)N)C(=O)N[C@H](Cc1c[nH]c2ccccc12)C(=O)N[C@H](CCCNC(=N)N)C(=O)N[C@H](CC(C)C)C(=O)N[C@H](Cc1ccccc1)C(=O)N[C@H](CCCNC(=N)N)C(=O)N[C@H](CCCCN)C(=O)N[C@H](CCCNC(=N)N)C(=O)O [Chain306D] (H-[dR][dL][dK][dR][dW][dR][dL][dF][dR][dK][dR]-OH),Minimum inhibitory concentration,[1]; C. glabrata clinical yeast strain 1,8
same,Minimum inhibitory concentration,[1]; C. glabrata clinical yeast strain 2,8
same,Minimum inhibitory concentration,[1]; C. glabrata clinical yeast strain 3,16
same,Minimum inhibitory concentration,[1]; C. glabrata clinical yeast strain 4,32
same,Minimum inhibitory concentration,[2],4
same,Minimum inhibitory concentration,[3]; Candida albicans clinical yeast strain 1,16
same,Minimum inhibitory concentration,[3]; Candida albicans clinical yeast strain 2,8
same,Minimum inhibitory concentration,[3]; Candida albicans clinical yeast strain 3,8
same,Minimum inhibitory concentration,[3]; Candida albicans clinical yeast strain 4,16
same,Minimum inhibitory concentration,[3]; Candida albicans clinical yeast strain 5,16
same,Minimum inhibitory concentration,[4]; Enterobacter cloacae clinical strain 1,64
same,Minimum inhibitory concentration,[4]; Enterobacter cloacae clinical strain 2,64
same,Minimum inhibitory concentration,[4]; Enterobacter cloacae clinical strain 3,32
same,Minimum inhibitory concentration,[4]; Enterobacter cloacae clinical strain 4,16
same,Minimum inhibitory concentration,[4]; Enterobacter cloacae clinical strain 5,16
same,Minimum inhibitory concentration,[5]; Acinetobacter baumannii clinical strain 1,16
same,Minimum inhibitory concentration,[5]; Acinetobacter baumannii clinical strain 2,32
same,Minimum inhibitory concentration,[5]; Acinetobacter baumannii clinical strain 3,16
same,Minimum inhibitory concentration,[5]; Acinetobacter baumannii clinical strain 4,16
same,Minimum inhibitory concentration,[5]; Acinetobacter baumannii clinical strain 5,8
same,Minimum inhibitory concentration,[6]; Proteus mirabilis clinical strain 1,>128
same,Minimum inhibitory concentration,[6]; Proteus mirabilis clinical strain 2,>128
same,Minimum inhibitory concentration,[6]; Proteus mirabilis clinical strain 3,>128
same,Minimum inhibitory concentration,[6]; Proteus mirabilis clinical strain 4,>128
same,Minimum inhibitory concentration,[6]; Proteus mirabilis clinical strain 5,>128
same,Minimum inhibitory concentration,[7]; Serratia marcescens clinical strain 1,>128
same,Minimum inhibitory concentration,[7]; Serratia marcescens clinical strain 2,>128
same,Minimum inhibitory concentration,[7]; Serratia marcescens clinical strain 3,>128
same,Minimum inhibitory concentration,[7]; Serratia marcescens clinical strain 4,>128
same,Minimum inhibitory concentration,[7]; Serratia marcescens clinical strain 5,>128
same,Minimum inhibitory concentration,[8]; Staphylococcus aureus clinical strain 1,16
same,Minimum inhibitory concentration,[8]; Staphylococcus aureus clinical strain 2,32
same,Minimum inhibitory concentration,[8]; Staphylococcus aureus clinical strain 3,32
same,Minimum inhibitory concentration,[8]; Staphylococcus aureus clinical strain 4,16
same,Minimum inhibitory concentration,[8]; Staphylococcus aureus clinical strain 5,8
same,Minimum inhibitory concentration,[9]; Streptococcus pneumoniae clinical strain 1,64
same,Minimum inhibitory concentration,[9]; Streptococcus pneumoniae clinical strain 2,64
same,Minimum inhibitory concentration,[9]; Streptococcus pneumoniae clinical strain 3,64
same,Minimum inhibitory concentration,[9]; Streptococcus pneumoniae clinical strain 4,128
same,Minimum inhibitory concentration,[9]; Streptococcus pneumoniae clinical strain 5,64
same,Minimum inhibitory concentration,[10],16
same,Minimum inhibitory concentration,[11]; Pseudomonas aeruginosa clinical strain 1,128
same,Minimum inhibitory concentration,[11]; Pseudomonas aeruginosa clinical strain 2,>128
same,Minimum inhibitory concentration,[11]; Pseudomonas aeruginosa clinical strain 3,128
same,Minimum inhibitory concentration,[11]; Pseudomonas aeruginosa clinical strain 4,>128
same,Minimum inhibitory concentration,[11]; Pseudomonas aeruginosa clinical strain 5,128
same,MIC against the rest of the bacterial strains,[12],> 32 µg/mL
same,Minimum inhibitory concentration,[13]; Klebsiella pneumoniae clinical strain 1,128
same,Minimum inhibitory concentration,[13]; Klebsiella pneumoniae clinical strain 2,>128
same,Minimum inhibitory concentration,[13]; Klebsiella pneumoniae clinical strain 3,>128
same,Minimum inhibitory concentration,[13]; Klebsiella pneumoniae clinical strain 4,64
same,Minimum inhibitory concentration,[13]; Klebsiella pneumoniae clinical strain 5,64
same,Minimum inhibitory concentration,[14]; Escherichia coli clinical strain 1,1
same,Minimum inhibitory concentration,[14]; Escherichia coli clinical strain 2,2
same,Minimum inhibitory concentration,[14]; Escherichia coli clinical strain 3,2
same,Minimum inhibitory concentration,[14]; Escherichia coli clinical strain 4,2
same,Minimum inhibitory concentration,[14]; Escherichia coli clinical strain 5,2
same,MIC against E. coli,[14]; clinical strains,1 µg/mL
same,Minimum inhibitory concentration,[15]; C. parapsilosis clinical yeast strain 1,8
same,Minimum inhibitory concentration,[15]; C. parapsilosis clinical yeast strain 2,16
same,Minimum inhibitory concentration,[15]; C. parapsilosis clinical yeast strain 3,16
same,Minimum inhibitory concentration,[15]; C. parapsilosis clinical yeast strain 4,4
